# From patent publication US20200239530A1, “COMPOUNDS AND METHODS OF MODULATING PROTEIN DEGRADATION” (Vividion Therapeutics, Inc., priority 2017, published 2020)
# Legend:
# Assay in all cases: Cysteine liganding, probe competition
# Format in all cases: binding
# [1] = molecular target: T1, ANAPC7 Anaphase-promoting complex subunit 7 (Homo sapiens, UniProt Q9UJX3)
# T1 construct: Cells were resuspended in cold PBS on ice and sonicated with a probe sonicator to achieve lysis; endogenous in cells
# T1 sequence (Q9UJX3 whole entry, one chain of several): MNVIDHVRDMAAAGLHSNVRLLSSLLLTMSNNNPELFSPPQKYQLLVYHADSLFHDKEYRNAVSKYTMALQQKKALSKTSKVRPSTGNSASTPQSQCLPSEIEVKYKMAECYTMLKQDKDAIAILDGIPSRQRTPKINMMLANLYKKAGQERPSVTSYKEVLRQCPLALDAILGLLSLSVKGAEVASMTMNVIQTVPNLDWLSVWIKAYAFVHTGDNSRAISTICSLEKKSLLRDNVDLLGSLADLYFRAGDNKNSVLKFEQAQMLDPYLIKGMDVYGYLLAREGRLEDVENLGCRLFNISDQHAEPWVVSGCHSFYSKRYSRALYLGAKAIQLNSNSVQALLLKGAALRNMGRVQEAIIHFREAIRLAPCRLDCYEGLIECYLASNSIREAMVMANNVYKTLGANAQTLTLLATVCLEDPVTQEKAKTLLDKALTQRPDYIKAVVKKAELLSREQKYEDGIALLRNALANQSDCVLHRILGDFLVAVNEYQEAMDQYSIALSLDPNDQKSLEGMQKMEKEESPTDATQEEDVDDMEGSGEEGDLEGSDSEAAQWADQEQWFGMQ
# Summary of the method: (§1)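 Lysates from probe-sonicated cells in PBS (5 mg/ml proteome) were exposed to compound for 1 hr at 25° C, then labelled with desthiobiotin iodoacetamide probe (10 mM stock) for 1 hr at 25° C. Probe-tagged peptides were streptavidin-enriched after trypsin digestion.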
# [2] = molecular target: T2, RNF214 RING finger protein 214 (Homo sapiens, UniProt Q8ND24); settings: for Liganded: RNF214 Res# 655, uniprot Q8ND24
# T2 construct: Cells were resuspended in cold PBS on ice and sonicated with a probe sonicator to achieve lysis; endogenous in cells
# T2 sequence (Q8ND24 whole entry): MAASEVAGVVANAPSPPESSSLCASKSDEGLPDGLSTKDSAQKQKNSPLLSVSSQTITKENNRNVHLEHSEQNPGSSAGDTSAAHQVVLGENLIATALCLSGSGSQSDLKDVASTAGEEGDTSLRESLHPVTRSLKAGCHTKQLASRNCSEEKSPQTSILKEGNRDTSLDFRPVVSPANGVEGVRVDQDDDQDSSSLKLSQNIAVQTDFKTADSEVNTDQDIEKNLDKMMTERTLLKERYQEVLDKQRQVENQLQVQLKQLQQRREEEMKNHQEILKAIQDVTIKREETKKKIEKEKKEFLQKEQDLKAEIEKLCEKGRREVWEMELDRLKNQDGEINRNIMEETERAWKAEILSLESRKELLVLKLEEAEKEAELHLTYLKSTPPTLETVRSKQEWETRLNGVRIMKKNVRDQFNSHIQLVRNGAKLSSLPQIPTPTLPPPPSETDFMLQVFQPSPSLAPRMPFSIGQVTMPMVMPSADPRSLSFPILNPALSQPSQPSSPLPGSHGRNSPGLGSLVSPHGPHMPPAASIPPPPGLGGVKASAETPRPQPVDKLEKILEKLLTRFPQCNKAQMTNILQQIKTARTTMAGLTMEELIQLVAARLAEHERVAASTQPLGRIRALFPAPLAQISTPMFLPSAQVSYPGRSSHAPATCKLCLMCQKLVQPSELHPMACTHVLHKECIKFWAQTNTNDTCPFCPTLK
# Summary of the method: as §1
# [3] = molecular target: T3, UBE2O (E3-independent) E2 ubiquitin-conjugating enzyme (Homo sapiens, UniProt Q9C0C9)
# T3 construct: Cells were resuspended in cold PBS on ice and sonicated with a probe sonicator to achieve lysis; endogenous in cells
# T3 sequence (Q9C0C9 1-1292): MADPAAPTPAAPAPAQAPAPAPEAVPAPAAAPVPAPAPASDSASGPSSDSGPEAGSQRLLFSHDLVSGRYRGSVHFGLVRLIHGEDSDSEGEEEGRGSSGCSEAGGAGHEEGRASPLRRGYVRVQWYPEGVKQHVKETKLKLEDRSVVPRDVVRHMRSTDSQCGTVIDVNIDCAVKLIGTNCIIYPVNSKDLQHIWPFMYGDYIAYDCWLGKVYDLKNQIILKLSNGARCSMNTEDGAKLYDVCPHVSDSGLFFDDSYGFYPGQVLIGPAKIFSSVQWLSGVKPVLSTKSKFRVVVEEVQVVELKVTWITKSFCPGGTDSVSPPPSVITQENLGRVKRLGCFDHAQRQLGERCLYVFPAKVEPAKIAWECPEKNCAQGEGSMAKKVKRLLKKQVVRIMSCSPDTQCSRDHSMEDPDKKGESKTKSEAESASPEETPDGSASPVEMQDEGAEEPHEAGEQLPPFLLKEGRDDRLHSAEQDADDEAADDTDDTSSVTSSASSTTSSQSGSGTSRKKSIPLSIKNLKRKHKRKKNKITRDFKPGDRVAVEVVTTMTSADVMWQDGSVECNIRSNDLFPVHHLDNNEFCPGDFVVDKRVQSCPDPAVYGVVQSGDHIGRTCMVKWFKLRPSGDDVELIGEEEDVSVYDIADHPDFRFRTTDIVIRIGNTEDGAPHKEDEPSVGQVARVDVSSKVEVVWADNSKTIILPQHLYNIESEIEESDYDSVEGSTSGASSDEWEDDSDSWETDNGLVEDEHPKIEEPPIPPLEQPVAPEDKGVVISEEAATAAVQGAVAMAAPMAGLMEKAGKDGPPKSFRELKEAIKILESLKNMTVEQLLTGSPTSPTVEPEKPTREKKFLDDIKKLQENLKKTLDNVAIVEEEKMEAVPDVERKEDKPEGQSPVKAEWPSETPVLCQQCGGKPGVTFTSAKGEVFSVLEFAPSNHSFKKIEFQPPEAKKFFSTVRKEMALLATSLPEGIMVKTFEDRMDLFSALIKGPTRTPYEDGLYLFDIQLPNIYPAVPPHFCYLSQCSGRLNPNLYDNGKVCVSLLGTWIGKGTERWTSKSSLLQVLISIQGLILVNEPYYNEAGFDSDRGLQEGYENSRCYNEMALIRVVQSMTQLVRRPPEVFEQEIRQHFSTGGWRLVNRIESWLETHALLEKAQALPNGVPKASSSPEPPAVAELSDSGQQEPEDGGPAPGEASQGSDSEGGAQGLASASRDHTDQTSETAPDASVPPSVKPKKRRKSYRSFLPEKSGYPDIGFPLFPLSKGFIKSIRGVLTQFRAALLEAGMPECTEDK
# Summary of the method: as §1
Structure (SMILES),"Liganded ([1]; ANAPC7 Res# 329, uniprot Q9UJX3)",Liganded [2],"Liganded ([3]; UBE2O Res# 370, uniprot Q9C0C9)","Liganded ([3]; UBE2O Res# 400, uniprot Q9C0C9)","Liganded ([3]; UBE2O Res# 910, uniprot Q9C0C9)","Liganded ([3]; UBE2O Res# 913, uniprot Q9C0C9)",100 Max ([1]; uniprot Q9UJX3),100 ave ([1]; uniprot Q9UJX3),500 Max ([1]; uniprot Q9UJX3),500 ave ([1]; uniprot Q9UJX3),100 ave ([2]; uniprot Q8ND24),500 Max ([2]; uniprot Q8ND24),500 ave ([2]; uniprot Q8ND24),"100 Max ([2]; uniprot Q8ND24, unit assumed)"
COc1ccc2c(c1)CCCN2C(=O)CCl [KB02],YES,YES,YES,YES,YES,YES,,,,,,,,
O=C(CCl)Nc1cc(C(F)(F)F)cc(C(F)(F)F)c1 [KBO3],,YES,YES,,,,60.9,47.5,73.4,68.4,24.8,96.4,65.9,35.5%
